Experimental data taken from patent US6982286B2, “Carbocyclic hydrazino inhibitors of copper-containing amine oxidases” (Biotie Therapies Corp., priority 2001, dated 2006).
Counter-ions that a name gives are not always drawn.

Columns and labels:
[1] = target: T1, Recombinant human VAP-1 SSAO (Homo sapiens, UniProt Q16853); test: In vitro inhibition of VAP-1 SSAO activity (coupled colourimetric method); type: biochemical; conditions: for Selectivity for VAP-1 SSAO over MAO: ratio of total rat MAO IC50 to human VAP-1 SSAO IC50; for IC50: recombinant human VAP-1 SSAO in CHO cell lysate, 1 mM benzylamine, pH 7.6, 37° C., read-out: VAP-1 SSAO inhibitory activity IC50
T1 construct: expressed in transfected cells; host or cells: Chinese Hamster Ovary (CHO) cells; NP40 lysate supernatant used directly
T1 sequence (Q16853 1-763): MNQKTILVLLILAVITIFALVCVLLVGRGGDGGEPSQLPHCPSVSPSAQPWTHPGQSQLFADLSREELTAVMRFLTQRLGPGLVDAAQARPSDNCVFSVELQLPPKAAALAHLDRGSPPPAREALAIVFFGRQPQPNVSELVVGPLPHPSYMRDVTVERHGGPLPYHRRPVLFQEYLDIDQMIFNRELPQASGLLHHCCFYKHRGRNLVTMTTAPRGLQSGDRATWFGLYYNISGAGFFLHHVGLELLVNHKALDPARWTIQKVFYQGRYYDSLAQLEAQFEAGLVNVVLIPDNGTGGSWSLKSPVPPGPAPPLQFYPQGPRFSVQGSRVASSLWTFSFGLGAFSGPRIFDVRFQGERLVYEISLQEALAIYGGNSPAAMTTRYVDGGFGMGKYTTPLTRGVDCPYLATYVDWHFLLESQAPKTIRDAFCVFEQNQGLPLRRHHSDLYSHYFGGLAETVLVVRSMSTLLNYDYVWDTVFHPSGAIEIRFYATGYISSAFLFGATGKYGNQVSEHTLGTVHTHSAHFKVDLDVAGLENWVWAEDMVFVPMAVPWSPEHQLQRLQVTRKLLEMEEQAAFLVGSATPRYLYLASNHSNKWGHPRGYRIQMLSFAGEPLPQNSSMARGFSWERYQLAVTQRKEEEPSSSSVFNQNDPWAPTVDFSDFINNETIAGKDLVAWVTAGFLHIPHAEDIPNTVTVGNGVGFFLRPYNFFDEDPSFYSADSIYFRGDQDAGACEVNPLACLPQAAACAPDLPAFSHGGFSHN
Experimental: VAP-1 SSAO activity was measured using the coupled colourimetric method essentially as described for monoamine oxidase and related enzymes (Holt, A., et al., Anal. Biochem. 244:384-392 (1997)). Recombinant human VAP-1 SSAO expressed in Chinese Hamster Ovary (CHO) cells was used as a source of VAP-1 SSAO for activity measurements. Native CHO cells have negligible SSAO activity. These cells and their culture have previously been described (Smith, D. J., et al., J. Exp. Med. 188:17-27 (1998)). A cell lysate was prepared by suspending approximately 3.6×10^8 cells in 25 ml lysis buffer (150 mM NaCl, 10 mM Tris-Base pH 7.2, 1.5 mM MgCl2, 1% NP40) and incubating at 4° C. overnight on a rotating table. The lysate was clarified by centrifugation at 18000 g for 5 min at room temperature and the supernatant used directly in the assay. The VAP1 SSAO assay was performed in 96 well microtitre plates as follows. To each well was added a predetermined amount of inhibitor if required. The amount of inhibitor varied in each assay but was generally at a final concentration of between 1 nM and 50 μM. Controls lacked inhibitor. The inhibitor was in total volume of […] in water. The following reagents were then added. 0.2M potassium phosphate buffer pH 7.6 to a total reaction volume of 200 μl, 45 μl of freshly made chromogenic solution containing 1 mM 2,4-dichlorophenol, 500 μM 4-aminoantipyrine and 4 U/ml horseradish peroxidase and an amount of CHO cell lysate containing VAP-1 SSAO that caused a change of 0.6 A490 per h. This was within the linear response range of the assay. The plates were incubated for 30 min at 37° C. and the background absorbance measured at 490 nm using a Wallac Victor II multilabel counter. To initiate the enzyme reaction 20 μl 10 mM benzylamine (final concentration=1 mM) was added and the plate incubated for 1 h at 37° C. The increase in absorbance, reflecting VAP-1 SSAO activity, was measured at490 nm. Inhibition was presented as percent inhibition compared to control after correcting for background absorbance and IC50 values calculated using GraphPad Prism.

Structure (SMILES): CN(N)[C@H]1Cc2ccccc2[C@@H]1O (as salt: maleate) [Compound 1, (1S,2S)-2-(1-methylhydrazino)-1-indanol hydrogenmaleate]
- melting point: 104 to 106 °C

Structure (SMILES): CN(N)[C@@H]1Cc2ccccc2[C@H]1O (as salt: maleate) [Compound 6, (1R,2R)-2-(1-methylhydrazino)-1-indanol hydrogenmaleate]
- melting point: 104 to 106 °C

Structure (SMILES): CO[C@H]1c2ccccc2C[C@@H]1N(C)N (as salt: maleate) [Compound 19, (1S,2S)-2-(1-methylhydrazino)-1-methoxyindane Hydrogenmaleate]
- melting point: 113 to 115 °C

Structure (SMILES): CCN(N)[C@@H]1Cc2ccccc2[C@H]1O (racemic) [Compound 2, (1R*,2R*)-2-(1-Ethylhydrazino)-1-indanol hydrogenmaleate]
- Selectivity for VAP-1 SSAO over MAO [1]: 4
- IC50 [1]: 5300 nM

Structure (SMILES): CN(N)[C@@H]1Cc2ccccc2[C@H]1O (relative stereo) [Compound 4, (1R,*2R*)-2-(1-Methylhydrazino)-1-indanol hydrogenmaleate]
- Selectivity for VAP-1 SSAO over MAO [1]: 32
- IC50 [1]: 660 nM

Structure (SMILES): CN(N)[C@H]1Cc2ccccc2[C@@H]1O [Compound 1, (1S,2S)-2-(1-methylhydrazino)-1-indanol hydrogenmaleate]
- Selectivity for VAP-1 SSAO over MAO [1]: 31
- IC50 [1]: 700 nM

Structure (SMILES): CN(N)[C@@H]1Cc2ccccc2[C@H]1O [Compound 6, (1R,2R)-2-(1-methylhydrazino)-1-indanol hydrogenmaleate]
- Selectivity for VAP-1 SSAO over MAO [1]: 29
- IC50 [1]: 650 nM

Structure (SMILES): CN(N)[C@H]1Cc2ccccc2[C@@H]1O [Compound 7, (1S,2S)-2-(1-methylhydrazino)-1-indanol fumarate]
- Selectivity for VAP-1 SSAO over MAO ([1]; fumarate): 28
- IC50 [1]: 470 nM

Structure (SMILES): CN(N)[C@@H]1Cc2ccccc2[C@H]1O [Compound 8, (1R,2R)-2-(1-methylhydrazino)-1-indanol fumarate]
- Selectivity for VAP-1 SSAO over MAO ([1]; fumarate): 21
- IC50 [1]: 560 nM

Structure (SMILES): CN(N)[C@H]1Cc2ccccc2[C@@H]1O [Compound 9, (1S,2S)-2-(1-methylhydrazino)-1-indanol succinate]
- Selectivity for VAP-1 SSAO over MAO ([1]; succinate): 26
- IC50 [1]: 620 nM

Structure (SMILES): CN(N)[C@@H]1Cc2ccccc2[C@H]1O [Compound 10, (1R,2R)-2-(1-methylhydrazino)-1-indanol succinate]
- Selectivity for VAP-1 SSAO over MAO ([1]; succinate): 23
- IC50 [1]: 660 nM

Structure (SMILES): CN(N)[C@H]1Cc2ccccc2[C@@H]1O [Compound 11, (1S,2S)-2-(1-methylhydrazino)-1-indanol (S,S)-tartrate]
- Selectivity for VAP-1 SSAO over MAO [1]: 31
- IC50 [1]: 710 nM

Structure (SMILES): CN(N)[C@@H]1Cc2ccccc2[C@H]1O [Compound 12, (1R,2R)-2-(1-methylhydrazino)-1-indanol (S,S)-tartrate]
- Selectivity for VAP-1 SSAO over MAO [1]: 30
- IC50 [1]: 660 nM

Structure (SMILES): CN(N)[C@H]1Cc2ccccc2[C@@H]1O [Compound 13, (1S,2S)2-(1-methylhydrazino)-1-indanol (R,R)-tartrate]
- Selectivity for VAP-1 SSAO over MAO [1]: 29
- IC50 [1]: 660 nM

Structure (SMILES): CN(N)[C@@H]1Cc2ccccc2[C@H]1O [Compound 14, (1R,2R)-2-(1-methylhydrazino)-1-indanol (R,R)-tartrate]
- Selectivity for VAP-1 SSAO over MAO [1]: 28
- IC50 [1]: 710 nM

Structure (SMILES): CO[C@H]1c2ccccc2C[C@@H]1N(C)N [Compound 19, (1S,2S)-2-(1-methylhydrazino)-1-methoxyindane Hydrogenmaleate]
- Selectivity for VAP-1 SSAO over MAO [1]: 3
- IC50 [1]: 4320 nM
